Assay results as given in ChEMBL document CHEMBL1147906, “A comparative study of mesoionic compounds in Leishmania sp. and toxicity evaluation” (Eur J Med Chem, 2007).

What was measured:
Leishmania braziliensis = experiment: Antileishmanial activity against Leishmania braziliensis MCAN/BR/98/R619 promastigotes; assay type: functional; settings: read-out: ED50 (the source's name)
[1] = Cytotoxicity against BALB/c mouse peritoneal macrophages assessed as cell viability after 24 hrs by MTT assay; assay type: cell-based, Peritoneal macrophage cell; settings: read-out: TD50
Leishmania chagasi = experiment: Antileishmanial activity against Leishmania chagasi MCAN/BR/97/P142 promastigotes; assay type: functional; settings: read-out: ED50 (the source's name)

| SMILES | EC50 (Leishmania braziliensis) | EC50 (Leishmania chagasi) | CC50 at 24 h [1] |
| --- | --- | --- | --- |
| C(=C\c1sc(Nc2ccccc2)n[n+]1-c1ccccc1)/c1ccccc1 | 49.6 µM | 22.8 µM | 3.06 µM |
| COc1ccc(/C=C/c2sc(Nc3ccccc3)n[n+]2-c2ccccc2)cc1 | 46.2 µM | 8.31 µM | 1.13 µM |
| O=[N+]([O-])c1ccc(/C=C/c2sc(Nc3ccccc3)n[n+]2-c2ccccc2)cc1 | 70.8 µM | 22.8 µM | 5.49 µM |
| N#Cc1ccc(/C=C/c2sc(Nc3ccccc3)n[n+]2-c2ccccc2)cc1 | 28.1 µM | 16 µM | 441 µM |
| O=[N+]([O-])c1cccc(/C=C/c2sc(Nc3ccccc3)n[n+]2-c2ccccc2)c1 | 221 µM | 23.6 µM | 5.54 µM |
| Brc1cccc(/C=C/c2sc(Nc3ccccc3)n[n+]2-c2ccccc2)c1 | 25.9 µM | 145 µM | 2.47 µM |
| Oc1ccc(/C=C/c2sc(Nc3ccccc3)n[n+]2-c2ccccc2)cc1 | 376 µM | 415 µM | 32 µM |
| COc1cccc(/C=C/c2sc(Nc3ccccc3)n[n+]2-c2ccccc2)c1 | 30.6 µM | 4.75 µM | 0.61 µM |
| N=C(N)c1ccc(OCCCCCOc2ccc(C(=N)N)cc2)cc1 [PENTAMIDINE] | 64.2 µM | 27.5 µM | 2.21 µM |

These reach a lower EC50 (Leishmania braziliensis). Values come first.

| EC50 (Leishmania braziliensis) | EC50 (Leishmania chagasi) | SMILES | CC50 at 24 h [1] |
| --- | --- | --- | --- |
| 20.7 µM | 31.1 µM | Cc1ccc(/C=C/c2sc(Nc3ccccc3)n[n+]2-c2ccccc2)cc1 | 4.94 µM |
| 13 µM | 33.3 µM | CCOc1ccc(/C=C/c2sc(Nc3ccccc3)n[n+]2-c2ccccc2)cc1 | 9.73 µM |
| 6.23 µM | 13.2 µM | Clc1ccc(/C=C/c2sc(Nc3ccccc3)n[n+]2-c2ccccc2)cc1 | 12 µM |
| 5.1 µM | 3.42 µM | Fc1ccc(/C=C/c2sc(Nc3ccccc3)n[n+]2-c2ccccc2)cc1 | 5.82 µM |
| 2.93 µM | 9.97 µM | Brc1ccc(/C=C/c2sc(Nc3ccccc3)n[n+]2-c2ccccc2)cc1 | 6.59 µM |
| 1.72 µM | 5.17 µM | Clc1cccc(/C=C/c2sc(Nc3ccccc3)n[n+]2-c2ccccc2)c1 | 6.23 µM |
